Assay results from patent US20050112064A1, “DNA-dependent MRI contrast agents” (priority 2003, published 2005).
Entries after “also recorded” stand apart in the source; their conditions may differ. Like-named read-outs stand apart in the source and are kept apart here. Where no end group is shown, it is not given here.

Columns and labels:
[1] = Hydrolysis of bis-nitrophenylphosphate (BNPP) followed spectrophotometrically; assay type: biochemical; conditions: 37° C., BNPP 500 μM
Procedure: Hydrolytic Phosphate Cleavage. Because the EF-Hand is physiologically strictly a structural motif, an isolated Ca-binding loop's ability to affect hydrolytic cleavage was addressed. The hydrolysis of bis-nitrophenylphosphate (BNPP) was followed spectrophotometrically under turnover conditions. The absorbance increase at 400 nm due to liberated 4-nitrophenolate was observed over the initial 10-14 hours of the reaction (<10% BNPP converted). […] Plots of absorbance vs. time were converted to concentration units (ε=18,500 M^−1 cm^−1) to give first order rate constants (Sardesai et al., 1994).

[2] = tested on: supercoiled, double-stranded DNA; experiment: Cleavage of supercoiled plasmid monitored by agarose gel electrophoresis; assay type: biochemical
Procedure: The conversion of supercoiled plasmid (type I) to open circular (type II), linear (type III), or smaller fragments was monitored by agarose gel electrophoresis. Because the synthetic peptides bind strongly to DNA, thus preventing the observation of products, the peptides were chelated prior to electrophoresis (Falke et al., 1994). At the point each reaction was quenched (0.1 M EDTA), a suspension of neutral, washed, cation resin (Amberlyst, 10-20 μL) was incubated with each sample for 30 minutes, spun down, and the supernatent loaded into wells. After 24 hours of reaction (incubated at 37° C.), the concentration-dependent formation of open circular plasmid was observed. […] Over a 10-300 μM EuP3 gradient, nicking occurred from 10-150 μM, with the greatest amount of cleavage at 30 μM EuP3.
Sequence Selective DNA Cleavage. […] This cleavage is not dependent on the strain inherent in supercoiled plasmid, as cleavage of linearized ^32P-labeled DNA oligonucleotides was observed as well. Labeled fragments were incubated with Ce(NH3)6(NO3)4 and varying concentrations of peptides P3 or P3W at 37° C. overnight and analyzed by acrylamide gel electrophoresis. Cleavage was concentration dependent, and distinct between metallopeptides.

[3] = tested on: 14-mer d.s. DNA: self-complementary 5′-GAGCTAATTAGCTC-3′; experiment: Relaxivity in the presence of one equivalent DNA; assay type: physicochemical; conditions: 37° C., 50 mM HEPES, pH 7.4, one equivalent DNA
Procedure: (§1) P3W peptide ([…], Gd-binding EF-hand site is shaded) was synthesized and purified (>95% by HPLC) by the Caltech Peptide Synthesis Facility, Pasadena, Calif. The gadolinium complex was prepared by dissolving P3W in 50 mM HEPES buffer, pH 7.4, and adding 0.8 equivalents Gd(NO3)3 to give a 500 μM stock solution. Peptide concentration was estimated by absorbance (ε280=7290 M^−1cm^−1); the absence of uncomplexed Gd^3+ was confirmed by colorometric analysis with xylenol orange. All Gd concentrations were determined by ICP-MS (Agilent 7500). Relaxation rates were determined at 20 and 60 MHz, 37° C. using Broker NMS 120 and Brtiker mg60 Minispec spectrometers, respectively. NMRD profiles were recorded on a Koenig-Brown field cycling relaxometer; phantoms were imaged on a GE 1.5T clinical imager.

[4] = Relaxivity (water proton relaxation) without DNA; assay type: physicochemical; conditions: 37° C., 50 mM HEPES, pH 7.4
Procedure: as §1

[5] = T1-weighted MR imaging of phantoms at 1.5 tesla; conditions: 1.5 T, HEPES buffer pH 7.4, ambient temperature
Procedure: FIG. 6. T1-weighted MR images at 1.5 tesla of phantoms in HEPES buffer, pH 7.4, ambient temperature. (A) 3D SPGR TR=40, TE=3.1, α=75°. Images: a) HEPES; b) 80 μM P3W; c) 80 μM DNA (14-mer duplex); d) 115 μM GdDTPA; e) 115 μM GdDTPA+DNA (1:1); f) 8.6 μM GdP3W+DNA (1:1); g) 86 μM GdP3W; h) 86 μM GdP3W+DNA (1:1); i) 86 μM GdP3W+DNA (1:1)+NaCl (150 μM). (B) 3D SPGR TR=40, TE=4.0, α=40°. Images: a) HEPES, b) 48 μM GdDTPA, c) 48 μM GdP3W; d) 48 μM GdP3W+DNA.
as §1

[6] = tested on: supercoiled plasmid DNA (pBR322); experiment: DNA gel shift assay (agarose gel electrophoresis); assay type: binding; conditions: 5-25 μM ligand, 15 minutes, pBR322, 10 mM Tris pH 8.0
Procedure: DNA Gel Shift Assays. The affinity of EuP3, EuP2, and each free peptide for supercoiled plasmid DNA was examined by agarose gel electrophoresis. Plasmid (pBR322, New England Biolabs, Inc.) was incubated for 15 minutes at room temperature with increasing concentrations of each ligand (5-25 μM), prior to the addition of loading dye. Each lane contained 1 μg plasmid (50 μM base pairs) in 10 mM Tris buffer at pH 8.0.

[7] = tested on: T1, P3 (engrailed HTH / consensus EF-hand chimeric peptide) (synthetic construct); experiment: EMSA; conditions: Eu(III) complex EuP3; agarose gel shift, estimate from quantified band volumes; 10 mM Tris pH 8.0, room temp
T1 sequence: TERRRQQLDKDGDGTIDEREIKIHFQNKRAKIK

[8] = cited from earlier work
[9] = biological target: P4a (chimeric peptide: alpha2 and alpha3 of engrailed, minus the last turn of alpha2 and the beta-turn, with calmodulin loop I); experiment: measured dissociation constants for EuP4a; method not stated; self-association in the presence of Eu(III)
[10] = 10 μM Eu/10 μM peptide, pH 7.7, 10 mM Tris buffer
[11] = 25 μM Eu/25 μM peptide, pH 7.7, 10 mM Tris buffer
[12] = 25 μM Eu/50 μM peptide, pH 7.7, 10 mM Tris buffer

Molecule: EuP4a: Eu(III) metallopeptide of P4a (TERRRFDKDGNGYISAAELRHVKIWFQNKRAKIK)
- Rates (K(obs)) of BNPP cleavage [1, 10]: 11.3 s^−1 × 10^7
- Rates (K(obs)) of BNPP cleavage [1, 11]: 56.3 s^−1 × 10^7
- Rates (K(obs)) of BNPP cleavage [1, 12]: 62.0 s^−1 × 10^7
- Rates (K(obs)) of BNPP cleavage ([1]; 50 μM Eu/50 μM peptide, pH 7.7, 10 mM Tris buffer): 149.5 s^−1 × 10^7
- Rates (K(obs)) of BNPP cleavage ([1]; 50 μM Eu/100 μM peptide, pH 7.7, 10 mM Tris buffer): 212.0 s^−1 × 10^7
- dependence of cleavage activity on increasing concentration [2]: does not

Molecule: O=C([O-])CN(CCN(CC(=O)[O-])CC(=O)O)CCN(CC(=O)[O-])CC(=O)O.[Gd+3] [GdDTPA]
- r1 + DNA ([3]; 20 MHz): 4.9 mM⁻¹ s⁻¹
- r1 + DNA ([3]; 60 MHz): 3.5 mM⁻¹ s⁻¹
- r1 ([4]; 20 MHz): 4.6 mM⁻¹ s⁻¹
- r1 ([4]; 60 MHz): 3.5 mM⁻¹ s⁻¹
- signal / contrast in T1-weighted image, with DNA (1:1) [5]: did not increase the signal
- signal / contrast in T1-weighted image, without DNA [5]: difficult to discern

Molecule: EuP3: Eu(III) metallopeptide of P3 (TERRRQQLDKDGDGTIDEREIKIHFQNKRAKIK)
- Rates (K(obs)) of BNPP cleavage [1, 10]: 6.0 s^−1 × 10^7
- Rates (K(obs)) of BNPP cleavage [1, 11]: 7.3 s^−1 × 10^7
- Rates (K(obs)) of BNPP cleavage [1, 12]: 20.6 s^−1 × 10^7
- Rates (K(obs)) of BNPP cleavage ([1]; 50 μM Eu/50 μM peptide, pH 7.7, 5 mM Tris buffer): 17.5 ± 4 s^−1 × 10^7
- Rates (K(obs)) of BNPP cleavage ([1]; 50 μM Eu/100 μM peptide, pH 7.7, 5 mM Tris buffer): 11.5 ± 4 s^−1 × 10^7
- gel shift / DNA affinity (in words) [6]: gel shift and disappearance of type I plasmid occurs; also recorded: DNA-binding affinity in the micromolar regime
- dependence of cleavage activity on increasing concentration [2]: falls off with increasing concentration
- concentration range in which nicking occurred ([2]; 10-300 μM EuP3 gradient): 10 to 150 µM
- concentration with the greatest amount of cleavage ([2]; 10-300 μM EuP3 gradient): 30 µM
- cleavage of supercoiled DNA (in words) ([2]; 37° C.): catalyzes the cleavage of supercoiled, double-stranded DNA

Molecule: [Cl][Eu]([Cl])[Cl] [EuCl3, reference compound]
- Rates (K(obs)) of BNPP cleavage ([1]; 10 μM Eu/0 peptide, pH 7.7, 5 mM Tris buffer): 5.2 ± 0.6 s^−1 × 10^7
- Rates (K(obs)) of BNPP cleavage ([1]; 12 μM Eu/0 peptide, pH 7.7, 5 mM Tris buffer): 5.7 ± 0.3 s^−1 × 10^7
- gel shift / DNA affinity (in words) [6]: not

Molecule: pBR322 supercoiled plasmid
- Kd [7]: 20 µM

Molecule: O=C([O-])CN(CCN(CC(=O)[O-])C[C@H](COP(=O)([O-])OC1CCC(c2ccccc2)(c2ccccc2)CC1)N(CC(=O)[O-])CC(=O)[O-])CC(=O)[O-].[Gd+3].[H+].[H+].[H+] [MS-325]
- relaxivity ([8]; 60 MHz): 23 mM⁻¹ s⁻¹

Molecule: Gd-TREN-1-Me=3,2-HOPO
- relaxivity ([8]; 20 MHz and 37° C.): 6 to 11 mM⁻¹ s⁻¹

Molecule: TERRRFDKDGNGYISAAELRHVKIWFQNKRAKIK (also: Eu(III) complex)
- Kdim (dimerization constant) [9]: > 300 µM
